Measurements reported in patent publication US10112929B2, “Lactams as inhibitors of rock” (BRISTOL-MYERS SQUIBB COMPANY, priority 2015, dated 2018).
Where a name gives a salt, the structure may show the parent alone.

Each compound was assayed against ROCK2 (Homo sapiens (Human), UniProt O75116) (assay: biochemical).
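Also: rho kinase enzyme reaction halted with EDTA, phospho- and non-phospho peptide separated for read-out, kinase activity inhibition derived across a dose-response series, DMSO under 2%.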

ROCK2, sequence (O75116 whole entry, species assumed): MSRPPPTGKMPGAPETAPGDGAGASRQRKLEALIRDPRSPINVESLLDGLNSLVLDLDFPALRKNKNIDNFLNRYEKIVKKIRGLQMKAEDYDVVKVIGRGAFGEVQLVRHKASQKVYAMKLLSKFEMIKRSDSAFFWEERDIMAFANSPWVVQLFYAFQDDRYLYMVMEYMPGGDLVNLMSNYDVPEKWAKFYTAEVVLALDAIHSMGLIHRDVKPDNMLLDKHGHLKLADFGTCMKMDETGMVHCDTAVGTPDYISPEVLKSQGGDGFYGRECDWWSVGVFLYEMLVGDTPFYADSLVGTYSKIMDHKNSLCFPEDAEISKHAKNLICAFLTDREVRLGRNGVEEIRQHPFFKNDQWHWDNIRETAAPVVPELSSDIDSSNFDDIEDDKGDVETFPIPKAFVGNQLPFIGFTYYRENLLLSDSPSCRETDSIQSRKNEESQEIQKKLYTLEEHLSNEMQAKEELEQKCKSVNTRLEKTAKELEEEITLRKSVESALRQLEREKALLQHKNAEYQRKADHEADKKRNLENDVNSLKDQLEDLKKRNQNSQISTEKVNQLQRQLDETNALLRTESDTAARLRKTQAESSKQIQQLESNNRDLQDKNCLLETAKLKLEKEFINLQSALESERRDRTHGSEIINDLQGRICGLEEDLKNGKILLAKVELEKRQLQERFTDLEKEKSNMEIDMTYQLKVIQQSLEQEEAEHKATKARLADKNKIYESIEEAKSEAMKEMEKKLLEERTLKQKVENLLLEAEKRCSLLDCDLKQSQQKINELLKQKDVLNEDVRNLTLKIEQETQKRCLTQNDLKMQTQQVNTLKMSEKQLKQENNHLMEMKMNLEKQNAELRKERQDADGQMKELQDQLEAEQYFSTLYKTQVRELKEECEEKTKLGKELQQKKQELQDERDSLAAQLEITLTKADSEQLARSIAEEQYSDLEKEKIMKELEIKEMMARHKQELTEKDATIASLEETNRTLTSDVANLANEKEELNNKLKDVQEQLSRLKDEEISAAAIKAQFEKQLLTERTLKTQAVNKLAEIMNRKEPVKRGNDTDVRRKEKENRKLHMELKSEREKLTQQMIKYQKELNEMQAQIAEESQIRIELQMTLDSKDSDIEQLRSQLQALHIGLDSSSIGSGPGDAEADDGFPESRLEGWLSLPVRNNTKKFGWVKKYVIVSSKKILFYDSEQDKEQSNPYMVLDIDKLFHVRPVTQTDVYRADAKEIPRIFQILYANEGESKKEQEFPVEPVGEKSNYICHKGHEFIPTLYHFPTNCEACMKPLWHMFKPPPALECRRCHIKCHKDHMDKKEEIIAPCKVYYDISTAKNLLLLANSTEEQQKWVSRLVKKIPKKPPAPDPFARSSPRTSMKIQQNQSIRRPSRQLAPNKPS

| SMILES | IC50 |
| --- | --- |
| COc1nc(N2CCC(N3CCN(c4ccc(O)cc4)CC3)C2=O)ccc1-c1cn[nH]c1 (racemic) [Example 288, 3-(4-(44iydroxyphenyl)piperazin-1-yl)-1-(6-methoxy-5-(1H-pyrazol-4-yl)pyridin-2-yl)pyrrolidin-2-one] | 0.1 to 2.2 µM |
| COc1cccc(NC2CCN(c3ccc(-c4cn[nH]c4)cc3)C2=O)n1 (racemic) [Example 223, 1-(4-(1H-pyrazol-4-yl)phenyl)-3-((6-methoxypyridin-2-yl)amino)pyrrolidin-2-one] | 0.01 to 0.1 µM |
| COc1cc(N2CCC(Nc3cccc(F)c3OC)C2=O)ccc1-c1cn[nH]c1 (single isomer, unassigned) [Example 150, 3-((3-fluoro-2-methoxyphenyl)amino)-1-(3-methoxy-4-(1H-pyrazol-4-yl)phenyl) pyrrolidin-2-one] | 0.1 to 2.2 µM |
| COc1c(F)cccc1NC1CCN(c2ccc(-c3cn[nH]c3)c(F)c2)C1=O (single isomer, unassigned) [Example 336, 3-((3-fluoro-2-methoxyphenyl)amino)-1-(3-fluoro-4-(1H-pyrazol-4-yl)phenyl) pyrrolidin-2-one] | < 0.01 µM |
| COc1ccc(F)c(NC2CCN(c3ccc(-c4cn[nH]c4)cn3)C2=O)c1 (single isomer, unassigned) [Example 303, 1-(5-(1H-pyrazol-4-yl)pyridin-2-yl)-3-((2-fluoro-5-methoxyphenyl)amino)pyrrolidin-2-one] | 0.01 to 0.1 µM |
| COc1cccc(C(=O)NC2CCN(c3ccc(-c4cn[nH]c4)cc3)C2=O)c1 (centres unmarked) [Example 65, N-(1-(4-(1H-Pyrazol-4-yl)phenyl)-2-oxopyrrolidin-3-yl)-3-methoxybenzamide] | 0.1 to 2.2 µM |
| COc1ccc2c(c1)CCN2C1CCN(c2ccc(-c3cn[nH]c3)cc2)C1=O (single isomer, unassigned) [Example 42, 1-(4-(1H-pyrazol-4-yl)phenyl)-3-(5-methoxyindolin-1-yl)pyrrolidin-2-one] | 0.01 to 0.1 µM |
| COc1ccc(F)c(NC2CCN(c3ccc(-c4cn[nH]c4)cc3F)C2=O)c1 (single isomer, unassigned) [Example 340, 1-(2-fluoro-4-(1H-pyrazol-4-yl)phenyl)-3-((2-fluoro-5-methoxyphenyl)amino) pyrrolidin-2-one] | 0.1 to 2.2 µM |
| COc1cc(F)cc(NC2CCN(c3ccc(-c4cn[nH]c4)c(C(F)F)c3)C2=O)c1 (single isomer, unassigned) [Example 178, 1-(3-(difluoromethyl)-4-(1H-pyrazol-4-yl)phenyl)-3-((3-fluoro-5-methoxyphenyl)amino)pyrrolidin-2-one] | 0.01 to 0.1 µM |
| O=C1C(Nc2cccc(OCC3CC3)c2)CCN1c1ccc(-c2cn[nH]c2)cn1 (single isomer, unassigned) [Example 320, 1-(5-(1H-pyrazol-4-yl)pyridin-2-yl)-3-((3-(cyclopropylmethoxy)phenyl)amino) pyrrolidin-2-one] | 0.1 to 2.2 µM |
| CN(C)c1cccc(N[C@@H]2CCN(c3ccc(-c4cn[nH]c4)cc3)C2=O)c1 [Example 390, (R)-1-(4-(1H-pyrazol-4-yl)phenyl)-3-((3-(dimethylamino)phenyl)amino)pyrrolidin-2-one] | 0.1 to 2.2 µM |
| COc1cc(NC2CCN(c3ccc(-c4cn[nH]c4)c(OC)c3)C2=O)ccc1F (single isomer, unassigned) [Example 155, 3-((4-fluoro-3-methoxyphenyl)amino)-1-(3-methoxy-4-(1H-pyrazol-4-yl)phenyl) pyrrolidin-2-one] | < 0.01 µM |
| COc1cccc(NC2CCN(c3ccc(-c4cn[nH]c4)c(CO)c3)C2=O)c1 (racemic) [Example 187, 1-(3-(hydroxymethyl)-4-(1H-pyrazol-4-yl)phenyl)-3-((3-methoxyphenyl)amino) pyrrolidin-2-one] | 0.1 to 2.2 µM |
| COc1ccc(N[C@@H]2CCN(c3ccc(-c4cn[nH]c4)cc3)C2=O)c(OC)c1 [Example 384, (R)-1-(4-(1H-pyrazol-4-yl)phenyl)-3-((2,4-dimethoxyphenyl)amino)pyrrolidin-2-one] | 0.1 to 2.2 µM |
| COc1cccc(NC2CCN(c3cnc(-c4cn[nH]c4)c(OC)n3)C2=O)c1 (centres unmarked) [Example 134, 1-(6-Methoxy-5-(1H-pyrazol-4-yl)pyrazin-2-yl)-3-((3-methoxyphenyl)amino) pyrrolidin-2-one] | < 0.01 µM |
| COc1cccc(NC2CCN(c3ccc(-c4cn[nH]c4)c(OC)n3)C2=O)c1 (single isomer, unassigned) [Example 196, 1-(6-methoxy-5-(1H-pyrazol-4-yl)pyridin-2-yl)-3-((3-methoxyphenyl)amino) pyrrolidin-2-one] | < 0.01 µM |
| COc1nc(N2CCC(N3CCNc4ccccc43)C2=O)ccc1-c1cn[nH]c1 (racemic) [Example 228, 3-(3,4-dihydroquinoxalin-1(2H)-yl)-1-(6-methoxy-5-(1H-pyrazol-4-yl)pyridin-2-yl)pyrrolidin-2-one] | < 0.01 µM |
| CCc1cc(N2CCC(Nc3cc(F)cc(OC)c3)C2=O)ccc1-c1cn[nH]c1 (single isomer, unassigned) [Example 245, 1-(3-ethyl-4-(1H-pyrazol-4-yl)phenyl)-3-((3-fluoro-5-methoxyphenyl)amino) pyrrolidin-2-one] | 0.01 to 0.1 µM |
| CC(=O)Nc1cccc(NC2CCN(c3ccc(-c4cn[nH]c4)cc3)C2=O)c1 (centres unmarked) [Example 391, N-(3-((1-(4-(1H-pyrazol-4-yl)phenyl)-2-oxopyrrolidin-3-yl)amino)phenyl)acetamide] | 0.01 to 0.1 µM |
| COc1nc(N2CCC(N3CCc4ccccc4C3)C2=O)ccc1-c1cn[nH]c1 (racemic) [Example 277, 3-(3,4-dihydroisoquinolin-2(1H)-yl)-1-(6-methoxy-5-(1H-pyrazol-4-yl)pyridin-2-yl)pyrrolidin-2-one] | 0.1 to 2.2 µM |
| COc1cccc(NC2CCN(c3ccc(-c4cn[nH]c4)c(C)n3)C2=O)c1 (single isomer, unassigned) [Example 189, 3-((3-methoxyphenyl)amino)-1-(6-methyl-5-(1H-pyrazol-4-yl)pyridin-2-yl)pyrrolidin-2-one] | < 0.01 µM |
| COc1nc(N2CCC(Nc3cnn(C(C)C)c3)C2=O)ccc1-c1cn[nH]c1 (racemic) [Example 272, 3-((1-isopropyl-1H-pyrazol-4-yl)amino)-1-(6-methoxy-5-(1H-pyrazol-4-yl)pyridin-2-yl)pyrrolidin-2-one] | 0.1 to 2.2 µM |
| COc1nc(N2CCC(N3CC[C@H](F)C3)C2=O)ccc1-c1cn[nH]c1 (mixture of isomers) [Example 290, (3S)-3-fluoro-1′-(6-methoxy-5-(1H-pyrazol-4-yl)pyridin-2-yl)-[l,3′-bipyrrolidin]-2′-one hydrochloride] | 0.1 to 2.2 µM |
| O=C1[C@H](Nc2ccc3c(c2)OCO3)CCN1c1ccc(-c2cn[nH]c2)cc1 [Example 396, (R)-1-(4-(1H-pyrazol-4-yl)phenyl)-3-(benzo[d][1,3]dioxo1-5-ylamino)pyrrolidin-2-one] | 0.01 to 0.1 µM |
| O=C1C(Nc2cccc(OCC(F)F)c2)CCN1c1ccc(-c2cn[nH]c2)cc1 (single isomer, unassigned) [Example 237, 1-(4-(1H-pyrazol-4-yl)phenyl)-3-((3-(2,2-difluoroethoxy)phenyl)amino)pyrrolidin-2-one] | < 0.01 µM |
| COc1cccc(NC2CCN(c3ccc(-c4cn[nH]c4)c(Cl)c3)C2=O)c1 (single isomer, unassigned) [Example 164, 1-(3-chloro-4-(1H-pyrazo1-4-yl)phenyl)-3 ((3-methoxyphenyl)amino)pyrrolidin-2-one] | < 0.01 µM |
